Laboratory results published in article PMC8160934, “Different Biological Activities of Histidine-Rich Peptides Are Favored by Variations in Their Design” (Toxins, 2021).
In brackets after ≈: the same amount, converted by molar mass. Several values for one entry are separate records, joined by “and”; a condition that tells them apart may be missing. Equal values may be shown once. Where a SMILES comes first, the peptide text is derived from it.

Key:
[1] = tested on: E. coli bacteria (ATCC 25922); assay: Broth microdilution antibacterial assay (MIC) in Mueller–Hinton broth, pH 5; type: cell-based; conditions: for MIC: E. coli ATCC 25922, broth microdilution, Mueller–Hinton broth pH 5, 37 °C, 12 h, OD600, concentration at which bacterial growth reaches a minimum (at least 80% inhibited), average of two experiments, each in triplicate; for MIC50: E. coli, Mueller–Hinton broth pH 5, x50 from Origin fits of the growth curves of Figure 3 (concentration range 100 µM to 0.52 µM), fit error given, * error estimated in the range of the 1.5-fold dilution steps
Experimental: Therefore, the antibacterial properties of both series of peptides were analyzed in Mueller–Hinton (MH) broth at pH 5 by determining the minimal inhibitory concentrations (MICs).
Figure 3 Bacterial growth as a function of peptide concentration for the LAH4-Ln (A) and the LAH4-An series (B). The average of two experimental data sets (each data point derived from triplicates under the same experiment conditions) covering the concentration range 100 µM to 0.52 µM are shown by the relative bacterial growth when compared to bacteria in the absence of peptide (=100%). To guide the eye, the data have been fitted with the function ymin + (ymax − ymin)/(1 + (x/xo)^p)^s using the OriginPro software. […] The assay was performed in Mueller–Hinton broth, pH 5.
A broth microdilution assay was used to determine the minimal inhibitory concentration (MIC). A peptide aliquot of 1 mg was first solubilized in 50% ethanol (10 mM) then diluted in H2O to get a 300 μM peptide stock solution.
For all the activity tests, E. coli bacteria (ATCC® 25922^TM, Thermo Fisher Scientific, Courtaboeuf, France) were used. Briefly, some colonies from E. coli spread on gelose were resuspended in Mueller–Hinton broth, pH 7.4. After incubation at 37 °C for about 6 h this preculture was diluted to OD550nm = 0.2 in MH at pH5 and allowed to grow to reach the exponential phase (OD550nm = 1–2). After two-step dilution in MH pH5, the working bacteria suspension corresponding to 1.10^5–2.10^5 colony-forming units (CFU)/mL was obtained.
The antimicrobial testing was carried out in 96-well microplates (sterile polystyrene untreated with F-bottom, Thermo Scientific Nunc A/S, Roskilde, Denmark). The first column of the plate contains the highest final concentration (Cf) of peptide to test (two experiments were done: the first one starting at Cf 100 μM and a second one starting at 30 μM). All samples were added to the first column of the plate and subsequently spread onto the plate by a 1.5-fold dilution series in 10 steps. The last columns correspond to the positive and negative control conditions, respectively. Finally, the bacterial working suspension was distributed (50 μL at 1.10^5–2.10^5 CFU/mL in MH1X at pH 5) to each well except for the negative control (MH1X at pH5). The final volume was 100 μL/well and the range of peptide concentrations tested was from 100 μM to 1.73 μM for the first experiment and from 30 μM to 0.52 μM for the second experiment. The microplates were incubated at 37 °C for 12 h before bacterial growth was assessed by measuring the OD600. The initial bacterial density for each experiment was checked by spreading 100 μL of the working bacterial suspension, diluted 1/100 and 1/500 in MH1X, pH 5 on MH agar plates. After overnight incubation at 37 °C, the CFU were counted and the CFU/mL were determined. The percentage of bacterial growth compared to the positive control allows one to determine the MIC. The MIC values represent the average of the lowest tested peptide concentration (from both experiments) where most (at least 80%) of the bacterial growth is inhibited.

HCT116 cells = assay: Luciferase protein transduction; type: cell-based, human; conditions: HCT116, 2 µg recombinant luciferase with 10-32 µg peptide, 3 h in serum-free medium, mean of duplicates; result in words
Experimental: To perform a rapid screening of the protein transduction activities of the two series of peptides, we selected to deliver the luciferase protein from Photinus pyralis, which has a molecular weight (MW) of 62 kDa and an isoelectric point (pI) of 6.3. Indeed, the measurement of the activity of this enzyme is fast and very sensitive. […] Increasing amounts of peptides were added to a fixed amount of luciferase, and after 3 h of incubation with the human colon cancer cells HCT116, enzymatic activity was measured.
Figure 1 Transduction of the luciferase protein. HCT116 cells in 48-well plates were treated with 2 µg of recombinant luciferase (Rec. Luc) (per duplicate) in the presence or absence of LAH4 peptides (LAH4-Ln series in (A) and LAH4-An series in (B)). After 3 h of incubation in serum-free medium, cells were washed once with 1 mL/well of phosphate buffer saline (PBS), lysed, and the luciferase activity was determined. […] For each peptide, four conditions were tested: 10, 16, 24 and 32 µg of peptide/2 µg recombinant luciferase, except for LAH4 (16, 24 and 32 µg). Non-complexed recombinant luciferase was used as the control (black bar). The hydrophilic angles are shown in italics. […] It is uncertain whether it counts as a property result. The luciferase activities are shown only as bars, with no printed numbers, and are left out.
Protein complexes were generated using increasing peptide/protein w/w ratios.
Then, 0.25 mL of serum-free medium containing the peptide/protein complexes was transferred into each well. After an incubation time of 3 h at 37 °C the medium was removed, cells were washed once with 1 mL/well of PBS, and then 100 μL of lysis buffer was added per well. Luciferase activity and protein content were measured as described above.

U87 cells = assay: DNA transfection with p-Luc plasmid, luciferase expression; conditions: 1.5 µg pDNA with 7.5-25 µg peptide, 2 h 30 min, read one day post-transfection, mean of duplicates, result in words
Experimental: In vitro cell transfection experiments were performed using the plasmid p-Luc (7.6 kb), which is an expression plasmid encoding the firefly luciferase gene under the control of the human cytomegalovirus (CMV) immediate–early promoter. In total, 55,000 U87 cells were plated in 48-well plates one day before the experiment was performed. For transfection, 0.25 mL of serum-free culture medium containing the DNA complexes was deposited into each well of the duplicate. After incubation for approximately 2 h 30 min at 37 °C the medium was replaced with a fresh one containing serum. Luciferase activity was measured as described below in the cell lysate one day after transfection.
Transfection complexes were prepared as follows: for a duplicate, 1.5 μg of plasmid DNA and the desired amount of peptide were each diluted into 25 μL of acetate buffer pH 5 and gently mixed. DNA complexes were generated using increasing peptide/DNA w/w ratios. After 20 min of incubation at room temperature, the mixture was diluted with culture medium to obtain a final volume of 0.5 mL.
For luciferase activity, cells were harvested in 100 μL of lysis buffer (8 mM MgCl2, 1 mM DTT, 1 mM EDTA, 0.6% Triton X-100, 15% glycerol, and 25 mM Tris-phosphate buffer pH 7.8). The cell lysate was then transferred into Eppendorf tubes and centrifuged for 7 min at 10,000× g to pellet debris. Luciferase light units were measured in a 96-well plate format with a Centro LB luminometer (Berthold) from an aliquot of the supernatant (2 μL) with 1 s integration after automatic injection of 50 μL assay buffer (lysis buffer without Triton X-100 but supplemented with 2 mM ATP) and 50 μL of a luciferin solution (167 μM in water). Luciferase background was subtracted from each value and the protein content of the transfected cells was measured by Bradford dye-binding using the BioRad protein assay (Bio-Rad). The transfection efficiency was expressed as light units/s/mg protein (light units measured over a period of 1 s, and the values were then normalized after measurement of the amount of protein present in each well). The reported values are the mean of duplicates. Error bars represent the standard deviation of the mean.
glioblastoma U87 cells. Increasing amounts of peptide were mixed with a constant amount of reporter
plasmid (1.5 µg per duplicate of pDNA) and the complexes were incubated for 2h 30min with the
cells plated in 48-well plates. The transfection medium was then removed and replaced with fresh
culture medium supplemented with 10% serum. Luciferase activity was measured one day post-
transfection. The transfection efficiency is expressed as light units/s/mg protein and the reported
values are the mean of duplicates. Error bars represent the standard deviation of the mean.

Molecule	MIC [1]	MIC50 [1] [µM]	luciferase protein transduction efficiency (luciferase activity, light units/s/mg protein) (HCT116 cells)	DNA transfection activity (luciferase activity) (U87 cells)
CC(C)C[C@H](NC(=O)[C@H](C)NC(=O)[C@H](C)NC(=O)[C@H](CC(C)C)NC(=O)[C@H](CC(C)C)NC(=O)[C@H](Cc1c[nH]cn1)NC(=O)[C@H](CC(C)C)NC(=O)[C@H](C)NC(=O)[C@H](Cc1c[nH]cn1)NC(=O)[C@H](C)NC(=O)[C@H](CC(C)C)NC(=O)[C@H](CC(C)C)NC(=O)[C@H](C)NC(=O)[C@H](CCCCN)NC(=O)[C@@H](N)CCCCN)C(=O)N[C@@H](C)C(=O)N[C@@H](CC(C)C)C(=O)N[C@@H](Cc1c[nH]cn1)C(=O)N[C@@H](CC(C)C)C(=O)N[C@@H](C)C(=O)N[C@@H](Cc1c[nH]cn1)C(=O)N[C@@H](CC(C)C)C(=O)N[C@@H](CC(C)C)C(=O)N[C@@H](CCCCN)C(=O)N[C@@H](CCCCN)C(=O)N[C@@H](C)C(N)=O [LAH4-A1] (H-KKALLAHALHLLAALALHLAHLLKKA-NH2)	25 µM (≈ 69.5 µg/mL)	13.9 (≈ 38.6 µg/mL)	among the least efficient	highest activity
CC(C)C[C@H](NC(=O)[C@H](C)NC(=O)[C@H](Cc1c[nH]cn1)NC(=O)[C@H](C)NC(=O)[C@H](CC(C)C)NC(=O)[C@H](CC(C)C)NC(=O)[C@H](C)NC(=O)[C@H](CCCCN)NC(=O)[C@@H](N)CCCCN)C(=O)N[C@@H](C)C(=O)N[C@@H](Cc1c[nH]cn1)C(=O)N[C@@H](CC(C)C)C(=O)N[C@@H](C)C(=O)N[C@@H](CC(C)C)C(=O)N[C@@H](CC(C)C)C(=O)N[C@@H](C)C(=O)N[C@@H](CC(C)C)C(=O)N[C@@H](Cc1c[nH]cn1)C(=O)N[C@@H](CC(C)C)C(=O)N[C@@H](C)C(=O)N[C@@H](CC(C)C)C(=O)N[C@@H](Cc1c[nH]cn1)C(=O)N[C@@H](CC(C)C)C(=O)N[C@@H](CCCCN)C(=O)N[C@@H](CCCCN)C(=O)N[C@@H](C)C(N)=O [LAH4-L0] (H-KKALLAHALAHLALLALHLALHLKKA-NH2)	6 µM (≈ 16.7 µg/mL)	3.1 (≈ 8.61 µg/mL)	–	–
CC(C)C[C@H](NC(=O)[C@H](C)NC(=O)[C@H](CCCCN)NC(=O)[C@@H](N)CCCCN)C(=O)N[C@@H](CC(C)C)C(=O)N[C@@H](C)C(=O)N[C@@H](Cc1c[nH]cn1)C(=O)N[C@@H](C)C(=O)N[C@@H](CC(C)C)C(=O)N[C@@H](Cc1c[nH]cn1)C(=O)N[C@@H](CC(C)C)C(=O)N[C@@H](CC(C)C)C(=O)N[C@@H](C)C(=O)N[C@@H](CC(C)C)C(=O)N[C@@H](CC(C)C)C(=O)N[C@@H](C)C(=O)N[C@@H](CC(C)C)C(=O)N[C@@H](Cc1c[nH]cn1)C(=O)N[C@@H](CC(C)C)C(=O)N[C@@H](C)C(=O)N[C@@H](Cc1c[nH]cn1)C(=O)N[C@@H](C)C(=O)N[C@@H](CC(C)C)C(=O)N[C@@H](CCCCN)C(=O)N[C@@H](CCCCN)C(=O)N[C@@H](C)C(N)=O [LAH4-L1] (H-KKALLAHALHLLALLALHLAHALKKA-NH2)	20 µM and 17 µM	8.6 (≈ 23.9 µg/mL)	among the least efficient	highest activity
CC(C)C[C@H](NC(=O)[C@H](C)NC(=O)[C@H](CC(C)C)NC(=O)[C@H](Cc1c[nH]cn1)NC(=O)[C@H](Cc1c[nH]cn1)NC(=O)[C@H](C)NC(=O)[C@H](CC(C)C)NC(=O)[C@H](CC(C)C)NC(=O)[C@H](C)NC(=O)[C@H](C)NC(=O)[C@H](Cc1c[nH]cn1)NC(=O)[C@H](CC(C)C)NC(=O)[C@H](CC(C)C)NC(=O)[C@H](C)NC(=O)[C@H](CC(C)C)NC(=O)[C@H](Cc1c[nH]cn1)NC(=O)[C@H](CC(C)C)NC(=O)[C@H](CC(C)C)NC(=O)[C@H](C)NC(=O)[C@H](CCCCN)NC(=O)[C@@H](N)CCCCN)C(=O)N[C@@H](C)C(=O)N[C@@H](CC(C)C)C(=O)N[C@@H](CCCCN)C(=O)N[C@@H](CCCCN)C(=O)N[C@@H](C)C(N)=O [LAH4-L4] (H-KKALLHLALLHAALLAHHLALALKKA-NH2)	–	0.8 (≈ 2.22 µg/mL)	–	–
CC(C)C[C@H](NC(=O)[C@H](C)NC(=O)[C@H](C)NC(=O)[C@H](Cc1c[nH]cn1)NC(=O)[C@H](CC(C)C)NC(=O)[C@H](CC(C)C)NC(=O)[C@H](C)NC(=O)[C@H](CC(C)C)NC(=O)[C@H](Cc1c[nH]cn1)NC(=O)[C@H](CC(C)C)NC(=O)[C@H](CC(C)C)NC(=O)[C@H](C)NC(=O)[C@H](CCCCN)NC(=O)[C@@H](N)CCCCN)C(=O)N[C@@H](CC(C)C)C(=O)N[C@@H](C)C(=O)N[C@@H](Cc1c[nH]cn1)C(=O)N[C@@H](CC(C)C)C(=O)N[C@@H](C)C(=O)N[C@@H](C)C(=O)N[C@@H](CC(C)C)C(=O)N[C@@H](Cc1c[nH]cn1)C(=O)N[C@@H](CC(C)C)C(=O)N[C@@H](CCCCN)C(=O)N[C@@H](CCCCN)C(=O)N[C@@H](C)C(N)=O [LAH4-L5] (H-KKALLHLALLHAALLAHLAALHLKKA-NH2)	below 2 µM	1.2 (≈ 3.33 µg/mL)	the most efficient peptides	–
CC(C)C[C@H](NC(=O)[C@H](C)NC(=O)[C@H](C)NC(=O)[C@H](CC(C)C)NC(=O)[C@H](CC(C)C)NC(=O)[C@H](CC(C)C)NC(=O)[C@H](C)NC(=O)[C@H](CC(C)C)NC(=O)[C@H](Cc1c[nH]cn1)NC(=O)[C@H](CC(C)C)NC(=O)[C@H](CC(C)C)NC(=O)[C@H](C)NC(=O)[C@H](CCCCN)NC(=O)[C@@H](N)CCCCN)C(=O)N[C@@H](Cc1c[nH]cn1)C(=O)N[C@@H](C)C(=O)N[C@@H](Cc1c[nH]cn1)C(=O)N[C@@H](CC(C)C)C(=O)N[C@@H](C)C(=O)N[C@@H](C)C(=O)N[C@@H](CC(C)C)C(=O)N[C@@H](Cc1c[nH]cn1)C(=O)N[C@@H](CC(C)C)C(=O)N[C@@H](CCCCN)C(=O)N[C@@H](CCCCN)C(=O)N[C@@H](C)C(N)=O [LAH4-L6] (H-KKALLHLALLLAALHAHLAALHLKKA-NH2)	below 2 µM	0.9 (≈ 2.5 µg/mL)	–	–
H-KKALLALALHHLALLAHHLALALKKA-NH2 [LAH4-L3, isomer of LAH4, LAH4-Ln series]	–	1.4	–	–
H-KKALLALALHHLALLALHLAHALKKA-NH2 [LAH4-L2, isomer of LAH4, LAH4-Ln series]	–	4.7	the most efficient peptides	–
H-KKALLHALLAALLAHLHALLAHLKKA-NH2 [LAH4-A6, isomer of LAH4, LAH4-An series]	–	2.9	–	high levels of activity
H-KKALLLAALHHLAALALHLAHLLKKA-NH2 [LAH4-A2, isomer of LAH4, LAH4-An series]	–	5	the most efficient peptides	–
H-KKALLLAALHHLLALAHHLAALLKKA-NH2 [LAH4-A3, isomer of LAH4, LAH4-An series]	–	7.5	–	–
